This is an account of results in the Deep4Chem optical property database.

The structures appear in SMILES notation.

The first data set in a line: solvent given as SMILES. The conditions noted are these: in C1CCCCC1.
The compound `COC(=O)c1noc(-c2ccccc2)c1Cl` displayed an emission maximum of 344 nm.

`CB1C=Cc2ccc3ccccc3c2N1c1ccccc1` showed an emission maximum of 387 nm.

The data set is the same for the next values; noted with them: in C1CCOC1.
In turn, `O=P(c1ccccc1)(c1ccccc1)n1c2ccccc2c2cc(-n3c4ccccc4c4cc(-n5c6ccccc6c6ccccc65)ccc43)ccc21` gave an emission maximum of 373 nm.

`CC(C)(C)c1ccc(-c2nc3c4ccccc4c4ccccc4c3n2-c2ccc(C(C)(C)C)cc2)cc1` yielded an emission maximum of 390 nm.

`C(=C\c1nc(/C=C/c2ccc(N(c3ccccc3)c3ccccc3)cc2)cc(/C=C/c2ccc(N(c3ccccc3)c3ccccc3)cc2)n1)/c1ccccc1`: the emission maximum came out at 520 nm.

`N#Cc1c(N2CCCC2)cc(-c2ccccc2)c2c1-c1ccccc1C2` came in with an emission maximum of 446 nm.

`O=C(O)c1ccc2ccc3cccc4ccc1c2c34` gave an emission maximum of 387 nm.

For `O=C1c2cccc3cc4ccccc4c(c23)C(=O)N1Cc1ccccn1`, the emission maximum was determined as 485 nm.

The data set is the same for the next values; noted with them: in C1COCCO1.
For `CC(C)(C)c1ccc(-c2nc3c4ccccc4c4ccccc4c3n2-c2ccc(C(C)(C)C)cc2)cc1`, the emission maximum is on record as 389 nm.

`c1ccc2c(-c3ccc(-c4nnc(-c5ccc(-c6nnc(-c7ccc(-c8cccc9ccccc89)s7)o6)cc5)o4)s3)cccc2c1` yielded an emission maximum of 434 nm.

Still in this data set, the particulars now being: in CC1CCCCC1.
On to `C(=C\c1c2ccccc2cc2ccccc12)/c1cnc2ccccc2c1`, for which the emission maximum was 488 nm.

The same data set, now with this note: in CC#N.
As for `O=C1C=Cc2cc3ccccc3c(=O)n21`, the emission maximum is 410 nm.

As for `CCCCCCN(CCCCCC)c1ccc(C#Cc2ccc(C#N)cc2)cc1`, the emission maximum is on record as 530 nm.

Consider `COc1cc(/C=C/c2cc[n+](Cc3ccc(Br)cc3)cc2)ccc1O`, for which the emission maximum stood at 557 nm.

`N#Cc1cc(-n2c3ccccc3c3cccnc32)c(-n2c3ccccc3c3cccnc32)cc1C#N` displayed an emission maximum of 504.42 nm.

In turn, `C(=C\c1c2ccccc2cc2ccccc12)/c1cnc2ccccc2c1` displayed an emission maximum of 494 nm.

Compound `CCN(CC)c1ccc2cc3ccc(=[N+](CC)CC)cc-3oc2c1` displayed an emission maximum of 549 nm.

`CC(C)(C)c1ccc(-c2nc3c4ccccc4c4ccccc4c3n2-c2ccc(C(C)(C)C)cc2)cc1` showed an emission maximum of 389 nm.

As to `C(=C\c1nc(/C=C/c2ccc(N(c3ccccc3)c3ccccc3)cc2)cc(/C=C/c2ccc(N(c3ccccc3)c3ccccc3)cc2)n1)/c1ccccc1`, the emission maximum turned out to be 591 nm.

Compound `c1ccc2c(-c3ccc(-c4nnc(-c5ccc(-c6nnc(-c7ccc(-c8cccc9ccccc89)s7)o6)cc5)o4)s3)cccc2c1` had an emission maximum of 458 nm.

Regarding `O=C(O)c1ccc2ccc3cccc4ccc1c2c34`, the emission maximum is reported as 389 nm.

The compound `C[n+]1ccc(/C=C/c2ccc([O-])cc2)cc1` had an emission maximum of 606 nm.

Still in this data set, the particulars now being: in CC(=O)N(C)C.
`C1=C/C2=C(\c3ccccc3)c3c[nH]c(c3)/C(c3ccccc3)=C3/C=CC(=N3)/C(c3ccccc3)=c3/cc/c([nH]3)=C(\c3ccccc3)C1=N2`: the emission maximum is on record as 713 nm.

Compound `c1ccc2c(-c3ccc(-c4nnc(-c5ccc(-c6nnc(-c7ccc(-c8cccc9ccccc89)s7)o6)cc5)o4)s3)cccc2c1` displayed an emission maximum of 462 nm.

Staying with this data set, now noted: in CC(C)=O.
Compound `COc1cc(/C=C/c2cc[n+](Cc3ccc(Br)cc3)cc2)ccc1O` yielded an emission maximum of 562 nm.

`O=P(c1ccccc1)(c1ccccc1)n1c2ccccc2c2cc(-n3c4ccccc4c4cc(-n5c6ccccc6c6ccccc65)ccc43)ccc21` displayed an emission maximum of 374 nm.

In the case of `C(=C\c1nc(/C=C/c2ccc(N(c3ccccc3)c3ccccc3)cc2)cc(/C=C/c2ccc(N(c3ccccc3)c3ccccc3)cc2)n1)/c1ccccc1`, the emission maximum was determined as 563 nm.

`C[n+]1ccc(/C=C/c2ccc([O-])cc2)cc1` came in with an emission maximum of 610 nm.

The same data set, now with this note: in CC(C)CO.
Turning to `COc1cc(/C=C/c2cc[n+](Cc3ccc(Br)cc3)cc2)ccc1O`, the emission maximum turned out to be 556 nm.

The data set is the same for the next values; noted with them: in CC(C)O.
The compound `COc1cc(/C=C/c2cc[n+](Cc3ccc(Br)cc3)cc2)ccc1O` displayed an emission maximum of 559 nm.

`C[n+]1ccc(/C=C/c2ccc([O-])cc2)cc1`: the emission maximum came to 594 nm.

The same data set, now with this note: in CCC#N.
Compound `COc1cc(/C=C/c2cc[n+](Cc3ccc(Br)cc3)cc2)ccc1O` showed an emission maximum of 559 nm.

The same data set, now with this note: in CCCCCC.
For the compound `N#Cc1cc(-n2c3ccccc3c3cccnc32)c(-n2c3ccccc3c3cccnc32)cc1C#N`, the emission maximum is given as 386.98 nm.

Take `CCc1ccc2ccc(-c3ccccc3)nn12`: the emission maximum is 495 nm.

`CC(C)(C)c1ccc(-c2nc3c4ccccc4c4ccccc4c3n2-c2ccc(C(C)(C)C)cc2)cc1` gave an emission maximum of 385 nm.

The compound `O=C(O)c1ccc2ccc3cccc4ccc1c2c34` had an emission maximum of 387 nm.

`O=C1c2cccc3cc4ccccc4c(c23)C(=O)N1Cc1ccccn1` returned an emission maximum of 465 nm.

The same data set, now with this note: in CCCCCCC.
Compound `C(=C\c1nc(/C=C/c2ccc(N(c3ccccc3)c3ccccc3)cc2)cc(/C=C/c2ccc(N(c3ccccc3)c3ccccc3)cc2)n1)/c1ccccc1` returned an emission maximum of 464 nm.

Still in this data set, the particulars now being: in CCCCCCCCCCO
Compound `c1ccc2c(-c3ccc(-c4nnc(-c5ccc(-c6nnc(-c7ccc(-c8cccc9ccccc89)s7)o6)cc5)o4)s3)cccc2c1` returned an emission maximum of 440 nm.

Staying with this data set, now noted: in CCCCCCCCO
With `c1ccc2c(-c3ccc(-c4nnc(-c5ccc(-c6nnc(-c7ccc(-c8cccc9ccccc89)s7)o6)cc5)o4)s3)cccc2c1`, the emission maximum stood at 442 nm.

Still in this data set, the particulars now being: in CCCCCCO.
For the compound `COc1cc(/C=C/c2cc[n+](Cc3ccc(Br)cc3)cc2)ccc1O`, the emission maximum amounted to 553 nm.

In turn, `c1ccc2c(-c3ccc(-c4nnc(-c5ccc(-c6nnc(-c7ccc(-c8cccc9ccccc89)s7)o6)cc5)o4)s3)cccc2c1` registered an emission maximum of 445 nm.

The same data set, now with this note: in CCCCCO.
For `COc1cc(/C=C/c2cc[n+](Cc3ccc(Br)cc3)cc2)ccc1O`, the emission maximum is reported as 554 nm.

The same data set, now with this note: in CCCCO.
Take `COc1cc(/C=C/c2cc[n+](Cc3ccc(Br)cc3)cc2)ccc1O`: the emission maximum was 558 nm.

With `c1ccc2c(-c3ccc(-c4nnc(-c5ccc(-c6nnc(-c7ccc(-c8cccc9ccccc89)s7)o6)cc5)o4)s3)cccc2c1`, the emission maximum is on record as 451 nm.

The data set is the same for the next values; noted with them: in CCCCOCCCC
`CC(C)(C)c1ccc(-c2nc3c4ccccc4c4ccccc4c3n2-c2ccc(C(C)(C)C)cc2)cc1` showed an emission maximum of 389 nm.

The same data set, now with this note: in CCCO.
In turn, `COc1cc(/C=C/c2cc[n+](Cc3ccc(Br)cc3)cc2)ccc1O` displayed an emission maximum of 559 nm.

As for `C[n+]1ccc(/C=C/c2ccc([O-])cc2)cc1`, the emission maximum turned out to be 587 nm.

The data set is the same for the next values; noted with them: in CCN(CC)CC.
`CC(C)(C)c1ccc(-c2nc3c4ccccc4c4ccccc4c3n2-c2ccc(C(C)(C)C)cc2)cc1` returned an emission maximum of 388 nm.

Still in this data set, the particulars now being: in CCO.
Turning to `COc1cc(/C=C/c2cc[n+](Cc3ccc(Br)cc3)cc2)ccc1O`, the emission maximum is 564 nm.

In the case of `CCN(CC)c1ccc2cc3ccc(=[N+](CC)CC)cc-3oc2c1`, the emission maximum amounted to 557 nm.

`CN1c2cc3nc4cc(Cl)c(Cl)cc4nc3cc2N(C)C1(C)C` came in with an emission maximum of 497 nm.

In turn, `c1ccc2c(-c3ccc(-c4nnc(-c5ccc(-c6nnc(-c7ccc(-c8cccc9ccccc89)s7)o6)cc5)o4)s3)cccc2c1` returned an emission maximum of 459 nm.

On to `O=C(O)c1ccc2ccc3cccc4ccc1c2c34`, for which the emission maximum amounted to 380 nm.

For `O=C1c2cccc3cc4ccccc4c(c23)C(=O)N1Cc1ccccn1`, the emission maximum came to 500 nm.

`C[n+]1ccc(/C=C/c2ccc([O-])cc2)cc1` displayed an emission maximum of 582 nm.

The data set is the same for the next values; noted with them: in CCOC(C)=O.
Compound `OCc1cc2c(cc3ccc4cccc5ccc2c3c45)[nH]1` gave an emission maximum of 404 nm.

`CC(C)(C)c1ccc(-c2nc3c4ccccc4c4ccccc4c3n2-c2ccc(C(C)(C)C)cc2)cc1` showed an emission maximum of 390 nm.

Staying with this data set, now noted: in CCOCC.
On to `CC(C)(C)c1ccc(-c2nc3c4ccccc4c4ccccc4c3n2-c2ccc(C(C)(C)C)cc2)cc1`, for which the emission maximum was 388 nm.

Staying with this data set, now noted: in CN(C)C=O.
`COc1cc(/C=C/c2cc[n+](Cc3ccc(Br)cc3)cc2)ccc1O` showed an emission maximum of 565 nm.

In turn, `O=C([O-])c1c2ccccc2c(C(=O)[O-])c2ccccc12` displayed an emission maximum of 410 nm.

In turn, `COc1cc2c(cc1OC)C1=C3C(=O)N4C=Cc5cc(OC)c(OC)cc5C4=C3C(=O)N1C=C2` displayed an emission maximum of 602 nm.
